Columns and labels:
[1] = both, Sprague-Dawley (SD), rat, in vivo, 14 days
Protocol: The treatment group each includes 16 rats, and the vehicle control group includes 10 rats, with a half of male rats and a half of female rats. The drug at corresponding concentrations and the vehicle were administered to the rats through oral gavage daily for 14 consecutive days. The rats were allowed to recover for 7 days. During the administration period, general conditions, body weight and food intake were detected for each group. After the administration period and the recovery period, hematology test, serum biochemistry test and gross anatomical examination were performed for each group.

[2] = test system: NE enzyme; conditions: cited from earlier work
[3] = test system: LPS-induced acute lung injury; conditions: cited from earlier work

Cn1c(=O)oc2ccc(-c3ccc(C[C@@H](C#N)NC(=O)[C@@H]4CNCCCO4)c(F)c3)cc21 [Compound A, (S)—N—((S)-1-cyano-2-(2-fluoro-4-(3-methyl-2-oxo-2,3-dihydrobenzo[d]oxazol-5-yl)phenyl)ethyl)-1,4-oxazepane-2-carboxamide]
Toxicity compared at the same dose [1]: less toxic than INS1007
Inhibition of NE enzyme activity in rat bone marrow [2]: significantly inhibit NE enzyme activity in rat bone marrow
Effect on LPS-induced acute lung injury in mice [3]: mitigate LPS-induced acute lung injury in mice

Reference: patent US20260263480A1, “PHARMACEUTICAL COMPOSITION CONTAINING A DIPEPTIDYL PEPTIDASE SMALL MOLECULE INHIBITOR” (HAISCO PHARMACEUTICALS PTE. LTD., priority 2023, published 2026)
